# Molecular target: T1, wild-type HIV-1 protease (Human immunodeficiency virus type 1 group M subtype B, UniProt P04585)
# T1 construct: Escherichia coli expressed wild-type HIV-1 protease protein
# Experiment: Assay for Inhibition of Microbial Expressed HIV Protease (peptide substrate cleavage, LC-MS/MS readout)
# Format: biochemical
# Conditions: E. coli expressed wild-type HIV-1 protease, mean of at least two independent experiments, read-out: HIV Pr Enzyme HIV1 PR IC50
# Summary of the method: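 Cleavage of Val-Ser-Gln-Asn-(β-naphthyl)Ala-Pro-Ile-Val (400 μM) by recombinant HIV-1 protease ([…]) ran 1 h at 30 °C after a 30 min room-temperature inhibitor preincubation in 50 mM sodium acetate pH 5.5. Product peak areas by LC-MS/MS gave inhibition; values average at least two independent runs.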
row,Structure (SMILES),IC50 [nM]
1,"N=C1NC(c2ccccc2)(c2ccccc2)C(=O)N1Cc1cccc(C(=O)N2CCc3ccc(F)cc3C2)c1 [Compound 269, 3-{3-[(7-fluoro-3,4-dihydroisoquinolin-2(1H)-yl)carbonyl]benzyl}-2-imino-5,5-diphenylimidazolidin-4-one]",26.9
2,"CC(C)CCC1(c2cccc(F)c2)NC(=N)N(Cc2cccc(C(=O)N3Cc4ccccc4C3)c2)C1=O (centres unmarked) [Compound 270, 3-[3-(1,3-dihydro-2H-isoindol-2-ylcarbonyl)benzyl]-5-(3-fluorophenyl)-2-imino-5-(3-methylbutyl)imidazolidin-4-one]",27
3,"N=C1NC(c2ccccc2)(c2ccccc2)C(=O)N1Cc1cccc(C(=O)N2Cc3cc(Cl)c(Cl)cc3C2)c1 [Compound 271, 3-{3-[(5,6-dichloro-1,3-dihydro-2H-isoindol-2-yl)carbonyl]benzyl}-2-imino-5,5-diphenylimidazolidin-4-one]",27.9
4,"CC(C)CC[C@]1(c2ccccc2)NC(=N)N([C@H](C)c2cccc(C(=O)N3CCN(C)C(=O)C3)c2)C1=O [Compound 272, 4-[(3-{(1R)-1-[2-imino-4-(3-methylbutyl)-5-oxo-4-phenylimidazolidin-1-yl]ethyl}phenyl)carbonyl]-1-methylpiperazin-2-one]",28.3
5,"N=C1NC(c2ccccc2)(c2ccc(-c3ccccc3)cc2)C(=O)N1Cc1cccc(C(=O)N2Cc3ccccc3C2)c1 (centres unmarked) [Compound 273, 5-biphenyl-4-yl-3-[3-(1,3-dihydro-2H-isoindol-2-ylcarbonyl)benzyl]-2-imino-5-phenylimidazolidin-4-one]",28.5
6,"Cc1nc2c([nH]1)CN(C(=O)c1cccc(CN3C(=N)NC(CC(C)C)(c4ccccc4)C3=O)c1)C2 (centres unmarked) [Compound 274, 2-imino-3-{3-[(2-methyl-4,6-dihydropyrrolo[3,4-d]imidazol-5(1H)-yl)carbonyl]benzyl}-5-(2-methylpropyl)-5-phenylimidazolidin-4-one]",28.8
7,"N=C1NC(c2ccc(F)cc2)(c2ccc(F)cc2)C(=O)N1Cc1cccc(C(=O)N2CCC(n3c(=O)[nH]c4ccc(F)nc43)CC2)c1 [Compound 276, 3-{1-[(3-{[4,4-bis(4-fluorophenyl)-2-imino-5-oxoimidazolidin-1-yl]methyl}phenyl)carbonyl]piperidin-4-yl}-5-fluoro-1,3-dihydro-2H-imidazo[4,5-b]pyridin-2-one]",29.6
8,"CC(C)CCC1(c2cccc(-c3cccnc3)c2)NC(=N)N(Cc2cccc(C(=O)N3Cc4ccccc4C3)c2)C1=O (centres unmarked) [Compound 277, 3-[3-(1,3-dihydro-2H-isoindol-2-ylcarbonyl)benzyl]-2-imino-5-(3-methylbutyl)-5-(3-pyridin-3-ylphenyl)imidazolidin-4-one]",29.8
9,"CCCC1(c2ccccc2)NC(=N)N(Cc2cccc(C(=O)N3Cc4nccnc4C3)c2)C1=O (centres unmarked) [Compound 278, 3-[3-(5,7-dihydro-6H-pyrrolo[3,4-b]pyrazin-6-ylcarbonyl)benzyl]-2-imino-5-phenyl-5-propylimidazolidin-4-one]",182
10,"COC(=O)N1CCN(C(=O)c2cccc([C@@H](C)N3C(=N)N[C@](CC(C)C)(c4ccccc4)C3=O)c2)CC1 [Compound 279, methyl 4-[(3-{(1R)-1-[2-imino-4-(2-methylpropyl)-5-oxo-4-phenylimidazolidin-1-yl]ethyl}phenyl)carbonyl] piperazine-1-carboxylate]",30.5
11,"N=C1NC(c2ccc(F)cc2)(c2ccc(F)cc2)C(=O)N1Cc1cccc(C(=O)N2CCN(c3ncccn3)CC2)c1 [Compound 280, 5,5-bis(4-fluorophenyl)-2-imino-3-{3-[(4-pyrimidin-2-ylpiperazin-1-yl)carbonyl]benzyl} imidazolidin-4-one]",31
12,"N=C1NC(c2ccccc2)(c2ccccc2)C(=O)N1Cc1cccc(C(=O)N2CCc3c(Cl)cccc3C2)c1 [Compound 281, 3-{3-[(5-chloro-3,4-dihydroisoquinolin-2(1H)-yl)carbonyl]benzyl}-2-imino-5,5-diphenylimidazolidin-4-one]",31.1
13,"CC1CN(C(=O)c2cccc(CN3C(=N)NC(c4ccccc4)(c4ccccc4)C3=O)c2)Cc2nnc(C(F)(F)F)n21 (centres unmarked) [Compound 282, 2-imino-3-(3-{[5-methyl-3-(trifluoromethyl)-5,6-dihydro[1,2,4]triazolo[4,3-a]pyrazin-7(8H)-yl]carbonyl}benzyl)-5,5-diphenylimidazolidin-4-one]",31.4
14,"CC(C)CCC1(c2ccccc2)NC(=N)N(Cc2cccc(C(=O)N3CCN(C)C(=O)C3)c2)C1=O (centres unmarked) [Compound 283, 4-[(3-{[2-imino-4-(3-methylbutyl)-5-oxo-4-phenylimidazolidin-1-yl]methyl}phenyl)carbonyl]-1-methylpiperazin-2-one]",31.8
15,"N=C1NC(c2ccc(F)cc2)(c2cccc(-c3cccnc3)c2)C(=O)N1Cc1cccc(C(=O)N2Cc3ccccc3C2)c1 (centres unmarked) [Compound 284, 3-[3-(1,3-dihydro-2H-isoindol-2-ylcarbonyl)benzyl]-5-(4-fluorophenyl)-2-imino-5-(3-pyridin-3-ylphenyl)imidazolidin-4-one]",32.7
16,"N=C1NC(c2ccc(F)cc2)(c2ccc(F)cc2)C(=O)N1Cc1cccc(C(=O)N2CCN(c3ccccn3)CC2)c1 [Compound 285, 5,5-bis(4-fluorophenyl)-2-imino-3-{3-[(4-pyridin-2-ylpiperazin-1-yl)carbonyl]benzyl} imidazolidin-4-one]",33.3
17,"N=C1NC(c2ccc(F)cc2)(c2ccc(F)cc2)C(=O)N1Cc1cccc(C(=O)N2Cc3cc(Cl)c(Cl)cc3C2)c1 [Compound 286, 3-{3-[(5,6-dichloro-1,3-dihydro-2H-isoindol-2-yl)carbonyl]benzyl}-5,5-bis(4-fluorophenyl)-2-iminoimidazolidin-4-one]",33.7
18,"COC(=O)C1c2ccccc2CN1C(=O)c1cccc(CN2C(=N)NC(c3ccccc3)(c3ccccc3)C2=O)c1 (centres unmarked) [Compound 287, methyl 2-({3-[(2-imino-5-oxo-4,4-diphenylimidazolidin-1-yl)methyl]phenyl}carbonyl)-2,3-dihydro-1H-isoindole-1-carboxylate]",33.9
19,"COC(=O)N1CCN(C(=O)c2cccc(CN3C(=N)NC(CC(C)C)(c4ccc(F)cc4)C3=O)c2)CC1 (centres unmarked) [Compound 288, methyl 4-[(3-{[4-(4-fluorophenyl)-2-imino-4-(2-methylpropyl)-5-oxoimidazolidin-1-yl]methyl}phenyl)carbonyl] piperazine-1-carboxylate]",35.3
20,"N=C1NC(c2ccc(F)cc2)(c2cccc(Br)c2)C(=O)N1Cc1cccc(C(=O)N2Cc3ccccc3C2)c1 (centres unmarked) [Compound 289, 5-(3-bromophenyl)-3-[3-(1,3-dihydro-2H-isoindol-2-ylcarbonyl)benzyl]-5-(4-fluorophenyl)-2-iminoimidazolidin-4-one]",36.1
21,"Cc1ncc2c(n1)CN(C(=O)c1cccc(CN3C(=N)NC(c4ccccc4)(c4ccccc4)C3=O)c1)C2 [Compound 290, 2-imino-3-{3-[(2-methyl-5,7-dihydro-6H-pyrrolo[3,4-d]pyrimidin-6-yl)carbonyl]benzyl}-5,5-diphenylimidazolidin-4-one]",36.3
22,"N=C1NC(c2ccccc2)(c2ccccc2)C(=O)N1Cc1cccc(C(=O)N2CCn3c(nnc3C(F)(F)F)C2)c1 [Compound 291, 2-imino-5,5-diphenyl-3-(3-{[3-(trifluoromethyl)-5,6-dihydro[1,2,4]triazolo[4,3-a]pyrazin-7(8H)-yl]carbonyl}benzyl) imidazolidin-4-one]",37.9
23,"N#Cc1cccc(-c2cccc(C3(c4ccc(F)cc4)NC(=N)N(Cc4cccc(C(=O)N5Cc6ccccc6C5)c4)C3=O)c2)c1 (centres unmarked) [Compound 292, 3′-{1-[3-(1,3-dihydro-2H-isoindol-2-ylcarbonyl)benzyl]-4-(4-fluorophenyl)-2-imino-5-oxoimidazolidin-4-yl}biphenyl-3-carbonitrile]",39
24,"CC(C)NC(=O)N1CCN(C(=O)c2cc(F)cc(CN3C(=N)NC(c4ccccc4)(c4ccccc4)C3=O)c2)CC1 [Compound 293, 4-({3-fluoro-5-[(2-imino-5-oxo-4,4-diphenylimidazolidin-1-yl)methyl]phenyl}carbonyl)-N-(1-methylethyl) piperazine-1-carboxamide]",39.2
25,"N=C1NC(c2ccc(F)cc2)(c2cccc(C(N)=O)c2)C(=O)N1Cc1cccc(C(=O)N2Cc3ccccc3C2)c1 (centres unmarked) [Compound 294, 3-{1-[3-(1,3-dihydro-2H-isoindol-2-ylcarbonyl)benzyl]-4-(4-fluorophenyl)-2-imino-5-oxoimidazolidin-4-yl}benzamide]",39.8
26,"N=C1NC(c2ccccc2)(c2ccccc2)C(=O)N1Cc1cccc(C(=O)N2CCc3nccnc3C2)c1 [Compound 295, 3-[3-(7,8-dihydropyrido[3,4-b]pyrazin-6(5H)-ylcarbonyl)benzyl]-2-imino-5,5-diphenylimidazolidin-4-one]",40.1
27,"N=C1NC(c2ccccc2)(c2ccccc2)C(=O)N1Cc1cc(F)cc(C(=O)N2Cc3ccccc3C2)c1 [Compound 296, 3-[3-(1,3-dihydro-2H-isoindol-2-ylcarbonyl)-5-fluorobenzyl]-2-imino-5,5-diphenylimidazolidin-4-one]",40.3
28,"C=Cc1c(C(F)(F)F)nc2n1CCN(C(=O)c1cccc(CN3C(=N)NC(c4ccccc4)(c4ccccc4)C3=O)c1)C2 [Compound 297, 3-(3-{[3-ethenyl-2-(trifluoromethyl)-5,6-dihydroimidazo [1,2-a]pyrazin-7(8H)-yl]carbonyl}benzyl)-2-imino-5,5-diphenylimidazolidin-4-one]",43.5
29,"COC(=O)N1CCN(C(=O)c2cc(F)cc(CN3C(=N)NC(c4ccccc4)(c4ccccc4)C3=O)c2)CC1 [Compound 298, methyl 4-({3-fluoro-5-[(2-imino-5-oxo-4,4-diphenylimidazolidin-1-yl)methyl]phenyl}carbonyl) piperazine-1-carboxylate]",43.5
